Results published in ChEMBL document CHEMBL3792337, “Cardiac Glycosides from the Seeds of Thevetia peruviana” (J Nat Prod, 2016).

Legend:
[1] = Cytotoxicity against human P15 cells after 48 hrs by MTT assay; format: functional, cell-based; conditions: P15, 48 h
[2] = Cytotoxicity against human MGC803 cells after 48 hrs by MTT assay; format: functional, cell-based; conditions: MGC-803, 48 h
[3] = Cytotoxicity against human LO2 cells after 48 hrs by MTT assay; format: cell-based; conditions: L02, 48 h
SW1990 = assay: Cytotoxicity against human SW1990 cells after 48 hrs by MTT assay; format: functional, cell-based; conditions: SW1990, 48 h

Structure (SMILES) | IC50 [1] | IC50 [2] | IC50 [3] | IC50 (SW1990)
CO[C@H]1[C@H](O)[C@H](O[C@H]2CC[C@@]3(O)[C@H](CC[C@@H]4[C@@H]3CC[C@]3(C)[C@@H](C5=CC(=O)OC5)CC[C@]43O)C2)O[C@@H](C)[C@@H]1O[C@@H]1O[C@H](CO[C@@H]2O[C@H](CO)[C@@H](O)[C@H](O)[C@H]2O)[C@@H](O)[C@H](O)[C@H]1O | > 10 µM | > 10 µM | > 10 µM | > 10 µM
CO[C@@H]1[C@@H](O)[C@@H](O[C@@H]2CC[C@]3(CO)[C@@H](CC[C@H]4[C@H]3CC[C@@]3(C)[C@H](C5=CC(=O)OC5)CC[C@@]43O)C2)O[C@H](C)[C@H]1O[C@@H]1O[C@H](CO)[C@@H](O)[C@H](O)[C@H]1O | 0.12 µM | 0.32 µM | > 10 µM | 0.13 µM
CO[C@H]1[C@H](OC(C)=O)[C@H](O[C@@H]2CC[C@]3(C=O)[C@@H](CC[C@H]4[C@H]3CC[C@@]3(C)[C@H](C5=CC(=O)OC5)CC[C@@]43O)C2)O[C@@H](C)[C@@H]1O[C@H]1O[C@@H](CO)[C@H](O)[C@@H](O)[C@@H]1O | 0.59 µM | 1.23 µM | > 10 µM | 0.97 µM
CO[C@H]1[C@H](O)[C@H](O[C@H]2CC[C@@]3(C)[C@@H](CC[C@@H]4[C@@H]3CC[C@]3(C)[C@@H](C5=CC(=O)OC5)CC[C@]43O)C2)O[C@@H](C)[C@@H]1O[C@H]1O[C@@H](CO)[C@H](O)[C@@H](O)[C@@H]1O | 2.68 µM | 3.42 µM | > 10 µM | 4.54 µM
CO[C@H]1[C@H](O)[C@H](O[C@@H]2CC[C@]3(C(=O)O)[C@@H](CC[C@H]4[C@H]3CC[C@@]3(C)[C@H](C5=CC(=O)OC5)CC[C@@]43O)C2)O[C@@H](C)[C@@H]1O[C@H]1O[C@@H](CO[C@@H]2O[C@H](CO)[C@@H](O)[C@H](O)[C@H]2O)[C@H](O)[C@@H](O)[C@@H]1O | > 10 µM | > 10 µM | > 10 µM | > 10 µM
CO[C@@H]1[C@H](O)[C@@H](O[C@@H]2CC[C@]3(CO)[C@@H](CC[C@H]4[C@H]3CC[C@@]3(C)[C@H](C5=CC(=O)OC5)CC[C@@]43O)C2)O[C@H](C)[C@H]1O[C@@H]1O[C@H](CO)[C@@H](O)[C@H](O)[C@H]1O | 4.91 µM | 5.75 µM | > 10 µM | 2.14 µM
CO[C@H]1[C@H](O)[C@H](O[C@H]2CC[C@H]3[C@H](CC[C@@H]4[C@@H]3CC[C@]3(C)[C@@H](C5=CC(=O)OC5)CC[C@]43O)C2)O[C@@H](C)[C@@H]1O[C@H]1O[C@@H](CO)[C@H](O)[C@@H](O)[C@@H]1O | 3.35 µM | > 10 µM | > 10 µM | 8.1 µM
O=c1[nH]cc(F)c(=O)[nH]1 [FLUOROURACIL] | 89.2 µM | 68.3 µM | > 10 µM | 126 µM
CO[C@H]1[C@@H](O)[C@H](O[C@H]2CC[C@@]3(C)[C@H](CC[C@@H]4[C@@H]3CC[C@]3(C)[C@@H](C5=CC(=O)OC5)CC[C@]43O)C2)O[C@@H](C)[C@@H]1O[C@H]1O[C@@H](CO)[C@H](O)[C@@H](O)[C@@H]1O | 1.5 µM | > 10 µM | > 10 µM | 1.69 µM
CO[C@H]1[C@@H](O)[C@H](O[C@H]2CC[C@@]3(C)[C@@H](CC[C@@H]4[C@@H]3CC[C@]3(C)[C@@H](C5=CC(=O)OC5)CC[C@]43O)C2)O[C@@H](C)[C@@H]1O[C@H]1O[C@@H](CO[C@@H]2O[C@H](CO)[C@@H](O)[C@H](O)[C@H]2O)[C@H](O)[C@@H](O)[C@@H]1O | 10 µM | 6.56 µM | > 10 µM | > 10 µM
CO[C@H]1[C@H](O)[C@H](O[C@H]2CC[C@H]3[C@H](CC[C@@H]4[C@@H]3CC[C@]3(C)[C@@H](C5=CC(=O)OC5)CC[C@]43O)C2)O[C@@H](C)[C@@H]1O[C@@H]1O[C@H](CO[C@@H]2O[C@H](CO)[C@@H](O)[C@H](O)[C@H]2O)[C@@H](O)[C@H](O)[C@H]1O | > 10 µM | 8.18 µM | > 10 µM | 3.13 µM
CO[C@@H]1[C@@H](O)[C@@H](O[C@@H]2CC[C@]3(CO)[C@@H](CC[C@H]4[C@H]3CC[C@@]3(C)[C@H](C5=CC(=O)OC5)CC[C@@]43O)C2)O[C@H](C)[C@H]1O[C@@H]1O[C@H](CO[C@H]2O[C@@H](CO)[C@H](O)[C@@H](O)[C@@H]2O)[C@@H](O)[C@H](O)[C@H]1O | 10 µM | 9.52 µM | > 10 µM | 7.7 µM
CO[C@H]1[C@H](O)[C@H](O[C@H]2CC[C@@]3(O)[C@H](CC[C@@H]4[C@@H]3CC[C@]3(C)[C@@H](C5=CC(=O)OC5)CC[C@]43O)C2)O[C@@H](C)[C@@H]1O | 1.52 µM | 2.14 µM | > 10 µM | 0.49 µM
CO[C@H]1[C@H](O)[C@H](O[C@H]2CC[C@@]3(C)[C@H](CC[C@@H]4[C@@H]3CC[C@]3(C)[C@@H](C5=CC(=O)OC5)CC[C@]43O)C2)O[C@@H](C)[C@@H]1O[C@H]1O[C@@H](CO)[C@H](O)[C@@H](O)[C@@H]1O | 0.4 µM | 0.42 µM | > 10 µM | 0.62 µM
CO[C@H]1[C@H](O)[C@H](O[C@H]2CC[C@@]3(C)[C@H](CC[C@@H]4[C@@H]3CC[C@]3(C)[C@@H](C5=CC(=O)OC5)CC[C@]43O)C2)O[C@@H](C)[C@@H]1O[C@H]1O[C@@H](CO[C@@H]2O[C@H](CO)[C@@H](O)[C@H](O)[C@H]2O)[C@H](O)[C@@H](O)[C@@H]1O | 3.97 µM | > 10 µM | > 10 µM | 4.56 µM
CO[C@H]1[C@H](OC(C)=O)[C@H](O[C@H]2CC[C@@]3(C)[C@H](CC[C@@H]4[C@@H]3CC[C@]3(C)[C@@H](C5=CC(=O)OC5)CC[C@]43O)C2)O[C@@H](C)[C@@H]1O[C@H]1O[C@@H](CO)[C@H](O)[C@@H](O)[C@@H]1O | 2.84 µM | 3.21 µM | > 10 µM | 1.84 µM
CO[C@H]1[C@H](OC(C)=O)[C@H](O[C@@H]2CC[C@]3(C=O)[C@@H](CC[C@H]4[C@H]3CC[C@@]3(C)[C@H](C5=CC(=O)OC5)CC[C@@]43O)C2)O[C@@H](C)[C@@H]1O[C@H]1O[C@@H](CO[C@@H]2O[C@H](CO)[C@@H](O)[C@H](O)[C@H]2O)[C@H](O)[C@@H](O)[C@@H]1O | > 10 µM | 9.53 µM | > 10 µM | > 10 µM
CO[C@@H]1[C@@H](O)[C@@H](O[C@@H]2CC[C@]3(C=O)[C@@H](CC[C@H]4[C@H]3CC[C@@]3(C)[C@H](C5=CC(=O)OC5)CC[C@@]43O)C2)O[C@H](C)[C@H]1O[C@@H]1O[C@H](CO)[C@@H](O)[C@H](O)[C@H]1O | 1.46 µM | 5.32 µM | > 10 µM | 0.64 µM
CO[C@H]1[C@H](O)[C@H](O[C@H]2CC[C@@]3(OO)[C@H](CC[C@@H]4[C@@H]3CC[C@]3(C)[C@@H](C5=CC(=O)OC5)CC[C@]43O)C2)O[C@@H](C)[C@@H]1O[C@@H]1O[C@H](CO[C@@H]2O[C@H](CO)[C@@H](O)[C@H](O)[C@H]2O)[C@@H](O)[C@H](O)[C@H]1O | > 10 µM | > 10 µM | > 10 µM | 3.62 µM
CO[C@H]1[C@H](O)[C@H](O[C@H]2CC[C@@]3(O)[C@H](CC[C@@H]4[C@@H]3CC[C@]3(C)[C@@H](C5=CC(=O)OC5)CC[C@]43O)C2)O[C@@H](C)[C@@H]1O[C@H]1O[C@@H](CO)[C@H](O)[C@@H](O)[C@@H]1O | > 10 µM | > 10 µM | > 10 µM | > 10 µM
CO[C@H]1[C@H](O)[C@H](O[C@H]2CC[C@@]3(C)[C@@H](CC[C@@H]4[C@@H]3CC[C@]3(C)[C@@H](C5=CC(=O)OC5)CC[C@]43O)C2)O[C@@H](C)[C@@H]1O[C@H]1O[C@@H](CO[C@@H]2O[C@H](CO)[C@@H](O)[C@H](O)[C@H]2O)[C@H](O)[C@@H](O)[C@@H]1O | 10 µM | 8.32 µM | > 10 µM | > 10 µM
CO[C@H]1[C@H](O)[C@H](O[C@H]2CC[C@@]3(C(=O)O)[C@H](CC[C@@H]4[C@@H]3CC[C@]3(C)[C@@H](C5=CC(=O)OC5)CC[C@]43O)C2)O[C@@H](C)[C@@H]1O | > 10 µM | 3.93 µM | > 10 µM | > 10 µM
CO[C@H]1[C@H](OC(C)=O)[C@H](O[C@H]2CC[C@@]3(C)[C@H](CC[C@@H]4[C@@H]3CC[C@]3(C)[C@@H](C5=CC(=O)OC5)CC[C@]43O)C2)O[C@@H](C)[C@@H]1O[C@H]1O[C@@H](CO[C@@H]2O[C@H](CO)[C@@H](O)[C@H](O)[C@H]2O)[C@H](O)[C@@H](O)[C@@H]1O | 4.75 µM | 7.04 µM | > 10 µM | 5.82 µM
CO[C@H]1[C@H](O)[C@H](O[C@H]2CC[C@@]3(C=O)[C@H](CC[C@@H]4[C@@H]3CC[C@]3(C)[C@@H](C5=CC(=O)OC5)CC[C@]43O)C2)O[C@@H](C)[C@@H]1O [PERUVOSIDE] | 0.03 µM | 0.02 µM | > 10 µM | 0.02 µM
CO[C@H]1[C@@H](O)[C@H](O[C@H]2CC[C@@]3(C)[C@H](CC[C@@H]4[C@@H]3CC[C@]3(C)[C@@H](C5=CC(=O)OC5)CC[C@]43O)C2)O[C@@H](C)[C@@H]1O[C@H]1O[C@@H](CO[C@@H]2O[C@H](CO)[C@@H](O)[C@H](O)[C@H]2O)[C@H](O)[C@@H](O)[C@@H]1O | 6.02 µM | 1.93 µM | > 10 µM | 7.28 µM
